Laboratory results as given in article PMC12277314, “Design, synthesis, and anti-inflammatory potential of PROTAC drug molecules based on fondaparinux sodium” (Frontiers in Bioengineering and Biotechnology, 2025).
“Also recorded” adds a separate entry of the source.

Experiments:
[1] = tested on: colonic TNF-α and IL-1β levels; parameters: method as in Xu et al., 2024; settings: murine colitis model; ref Xu et al., 2024; cited from earlier work
[2] = tested on: inflammatory cytokines (IL-1β and TNF-α), PBMCs; test: LPS-induced cytokine secretion in PBMCs, cytokines overall; assay type: cell-based, Human; settings: 100 nM-10 μM
Description: (§1) Human PBMCs were isolated from buffy coats (procured from Uppsala University Hospital, Sweden) using Ficoll density gradient centrifugation and stored at −150°C. Thawed PBMCs were cultured in Dulbecco’s Modified Eagle Medium (DMEM) supplemented with 10% fetal bovine serum (FBS) and 5% PeSt in a CO2 incubator. Cells were seeded in 24-well plates (0.5–1 × 10^6 cells/well in 1 mL medium). PROTAC analogs and FS were added at 10 μM, 1 μM, and 100 nM. Two setups were employed: one receiving only the compounds, and another in which LPS (20 ng/mL) was added 2 h after compound treatment. After 24 h, supernatants were collected for cytokine quantification by ELISA.
(§2) All quantitative data are presented as mean ± SD. Sample size for each assay was n = 3 biological replicates. For multi-group comparisons, one-way ANOVA followed by Tukey’s post hoc test was used; for two-group comparisons, two-tailed, unpaired Student’s t-test was applied. P < 0.05 was considered significant.

[3] = tested on: IL-1β release, peripheral blood mononuclear cells (PBMCs); test: LPS-induced IL-1β release in PBMCs (ELISA); assay type: cell-based, Human; settings: 100 nM-10 μM
Description: as §1, §2

[4] = tested on: TNF-α release, peripheral blood mononuclear cells (PBMCs); test: LPS-induced TNF-α release in PBMCs (ELISA); assay type: cell-based, Human; settings: 100 nM-10 μM
Description: as §1, §2

[5] = molecular target: T1, CCL5 (Homo sapiens, UniProt P13501); test: SPR binding to immobilized CCL5; settings: for Kd: CM5 chip, 1:1 binding model, 0.38-12.50 µM analyte
T1 sequence (P13501 24-91): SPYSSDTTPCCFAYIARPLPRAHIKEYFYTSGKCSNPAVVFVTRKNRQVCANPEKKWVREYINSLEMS
Description: (§3) SPR was used to evaluate the binding affinity between the PROTAC molecules and the target proteins. Target proteins CCL5 and IL-6 were immobilized on a CM5 sensor chip via amine coupling, with unreacted sites blocked using ethanolamine (pH 8.5). The PROTAC molecules were injected at concentrations ranging from 0.38 µM to 12.50 µM in PBS-P running buffer (0.02 M phosphate buffer, 137 mM NaCl, 2.7 mM KCl, 0.2% DMSO, 0.05% P20, pH 7.4). Each injection lasted 120 s (association phase) followed by a 300-s dissociation phase at a flow rate of 30 μL/min. Data were analyzed using Biacore Insight Evaluation Software with a 1:1 binding model to determine KD values. In addition to the 1:1 Langmuir model, we tested bivalent-analyte and heterogeneous-ligand models. Both alternatives yielded substantially larger residuals and poorer overall fits, confirming the 1:1 Langmuir model as the most suitable for our sensorgram data.
(§4) To comprehensively assess the biological functionality of the PROTAC molecules, binding kinetics with the target proteins CCL5 and IL-6 were investigated using the Biacore 8K^+ system. CCL5 and IL-6—key inflammatory mediators—were immobilized on a CM5 sensor chip (9000 RU) via amine coupling, and kinetic parameters were calculated using a 1:1 binding model.

[6] = molecular target: IL-6 (Homo sapiens, UniProt P05231); test: SPR binding to immobilized IL-6; settings: CM5 chip, 1:1 binding model, 0.38-12.50 µM analyte
IL-6, sequence (P05231 30-212, species assumed): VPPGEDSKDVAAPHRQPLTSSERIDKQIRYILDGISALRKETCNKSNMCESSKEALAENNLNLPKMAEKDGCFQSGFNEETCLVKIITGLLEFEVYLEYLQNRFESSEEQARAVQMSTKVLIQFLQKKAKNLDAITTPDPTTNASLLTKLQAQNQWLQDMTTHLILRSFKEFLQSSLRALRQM
Description: as §3, §4

Compound	colonic TNF-α and IL-1β levels [1]	effect on LPS-induced cytokine secretion (in words) [2]	effect on LPS-induced IL-1β release (in words) [3]	effect on LPS-induced TNF-α (in words) [4]	Kd [5] [µM]	Kd [6] [µM]	binding to CCL5 (in words) ([5]; negative control)
O=C(/C=C/C(=O)Nc1ccc(NC(=O)c2ccc([N+](=O)[O-])o2)cc1)NCCCCCCNc1cccc2c1C(=O)N(C1CCC(=O)NC1=O)C2=O (centres unmarked) [SP23]	reduced						
CO[C@H]1O[C@H](COS(=O)(=O)O)[C@@H](O[C@@H]2O[C@@H](C(=O)NCCCCCc3cccc4c3CN(C3CCC(=O)NC3=O)C4=O)[C@@H](OC3O[C@H](COS(=O)(=O)O)[C@@H](O[C@@H]4O[C@H](C(=O)NCCCCCc5cccc6c5CN(C5CCC(=O)NC5=O)C6=O)[C@@H](O[C@H]5O[C@H](COS(=O)(=O)O)[C@@H](O)[C@H](O)[C@H]5NS(=O)(=O)O)[C@H](O)[C@H]4O)[C@H](OS(=O)(=O)O)[C@H]3NS(=O)(=O)O)[C@H](O)[C@H]2OS(=O)(=O)O)[C@H](O)[C@H]1NS(=O)(=O)O (some centres unmarked) [Product 8]		did not elicit significant changes; also recorded: limited anti-inflammatory activity	no significant effect; also recorded: not statistically significant	mild inhibition; also recorded: minimal	9.48		
CO[C@H]1O[C@H](COS(=O)(=O)O)[C@@H](O[C@@H]2O[C@@H](C(=O)NCCCCCCCNc3cccc4c3C(=O)N(C3CCC(=O)NC3=O)C4=O)[C@@H](OC3O[C@H](COS(=O)(=O)O)[C@@H](O[C@@H]4O[C@H](C(=O)NCCCCCCCNc5cccc6c5C(=O)N(C5CCC(=O)NC5=O)C6=O)[C@@H](O[C@H]5O[C@H](COS(=O)(=O)O)[C@@H](O)[C@H](O)[C@H]5NS(=O)(=O)O)[C@H](O)[C@H]4O)[C@H](OS(=O)(=O)O)[C@H]3NS(=O)(=O)O)[C@H](O)[C@H]2OS(=O)(=O)O)[C@H](O)[C@H]1NS(=O)(=O)O (some centres unmarked) [Product 6]		significant inhibition; also recorded: concentration-dependent suppression	significantly inhibited		4.75	8.27	
CO[C@H]1O[C@H](COS(=O)(=O)O)[C@@H](O[C@@H]2O[C@@H](C(=O)O)[C@@H](O[C@H]3O[C@H](COS(=O)(=O)O)[C@@H](O[C@@H]4O[C@H](C(=O)O)[C@@H](O[C@H]5O[C@H](COS(=O)(=O)O)[C@@H](O)[C@H](O)[C@H]5NS(=O)(=O)O)[C@H](O)[C@H]4O)[C@H](OS(=O)(=O)O)[C@H]3NS(=O)(=O)O)[C@H](O)[C@H]2OS(=O)(=O)O)[C@H](O)[C@H]1NS(=O)(=O)O [FS, Fondaparinux Sodium]		did not elicit significant changes	no effect			13.5	no binding
CO[C@H]1O[C@H](COS(=O)(=O)O)[C@@H](O[C@@H]2O[C@@H](C(=O)NCCCCCNc3cccc4c3C(=O)N(C3CCC(=O)NC3=O)C4=O)[C@@H](OC3O[C@H](COS(=O)(=O)O)[C@@H](O[C@@H]4O[C@H](C(=O)NCCCCCNc5cccc6c5C(=O)N(C5CCC(=O)NC5=O)C6=O)[C@@H](O[C@H]5O[C@H](COS(=O)(=O)O)[C@@H](O)[C@H](O)[C@H]5NS(=O)(=O)O)[C@H](O)[C@H]4O)[C@H](OS(=O)(=O)O)[C@H]3NS(=O)(=O)O)[C@H](O)[C@H]2OS(=O)(=O)O)[C@H](O)[C@H]1NS(=O)(=O)O (some centres unmarked) [Product 10]		significant inhibitory effect; also recorded: concentration-dependent suppression	significantly inhibited		11.3	1.54	
